Assay results published in ChEMBL document CHEMBL1201862, “PubChem BioAssay data set” (2004).
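All cell lines were grown in 96-well plates and treated with compound for 48 hours. GI50: concentration for 50% inhibition of growth.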 The source made the active and inactive calls. Cut-off read from the data, not from the text of the source: active = GI50 up to about 1.1 µM and inactive = higher.

Columns and labels:
Test in all cases: NCI tumour cell line growth inhibition, 48 h
ACHN = system: ACHN
HOP-92 = system: HOP-92
KM12 = system: KM12
LOX IMVI = system: LOX IMVI
MDA-MB-231 = system: MDA-MB-231
MDA-N = system: MDA-N
Malme-3M = system: Malme-3M
NCI-H226 = system: NCI-H226
NCI-H23 = system: NCI-H23
NCI-H460 = system: NCI-H460
OVCAR-3 = system: OVCAR-3
SF-268 = system: SF-268
SK-MEL-5 = system: SK-MEL-5
SNB-19 = system: SNB-19
SR = system: SR
SW-620 = system: SW-620
T47D = system: T47D
TK-10 = system: TK-10
UACC-62 = system: UACC-62
MCF7 = system: MCF7

Structure (SMILES)	GI50 (ACHN)	GI50 (HOP-92)	GI50 (KM12)	GI50 (LOX IMVI)	GI50 (MDA-MB-231)	GI50 (MDA-N)	GI50 (Malme-3M)	GI50 (NCI-H226)	GI50 (NCI-H23)	GI50 (NCI-H460)	GI50 (OVCAR-3)	GI50 (SF-268)	GI50 (SK-MEL-5)	GI50 (SNB-19)	GI50 (SR)	GI50 (SW-620)	GI50 (T47D)	GI50 (TK-10)	GI50 (UACC-62)	GI50 (MCF7)
C=C(C)CNCCN	> 100 µM (inactive)	> 100 µM (inactive)	> 100 µM (inactive)	> 100 µM (inactive)	> 100 µM (inactive)	> 100 µM (inactive)	> 100 µM (inactive)	> 100 µM (inactive)	> 100 µM (inactive)	> 100 µM (inactive)	> 100 µM (inactive)	> 100 µM (inactive)	> 100 µM (inactive)	> 100 µM (inactive)	> 100 µM (inactive)	> 100 µM (inactive)	> 100 µM (inactive)	> 100 µM (inactive)	> 100 µM (inactive)	
CC(=O)O[C@H]1CC[C@H]2[C@@H]3CCc4cc(O)c(I)cc4[C@H]3CC[C@]12C	14.9 µM (inactive)		12 µM (inactive)	15.1 µM (inactive)	3.64 µM (inactive)	15.9 µM (inactive)	16.9 µM (inactive)	14.9 µM (inactive)	12.5 µM (inactive)	12.9 µM (inactive)	16.6 µM (inactive)	13.8 µM (inactive)	3.83 µM (inactive)	15.8 µM (inactive)	10.6 µM (inactive)	13 µM (inactive)	14.7 µM (inactive)	19.3 µM (inactive)		17 µM (inactive)
Cc1ccc(-n2nnc(C#N)c2O)cc1	> 100 µM (inactive)		> 100 µM (inactive)		> 100 µM (inactive)	> 100 µM (inactive)	> 100 µM (inactive)	> 100 µM (inactive)	> 100 µM (inactive)	> 100 µM (inactive)	> 100 µM (inactive)	> 100 µM (inactive)	> 100 µM (inactive)	> 100 µM (inactive)		> 100 µM (inactive)	> 100 µM (inactive)	> 100 µM (inactive)	> 100 µM (inactive)	> 100 µM (inactive)
O=NN1C(c2ccccc2)CC(=NO)CC1c1ccccc1 (stereo unspecified)	> 100 µM (inactive)	> 100 µM (inactive)	> 100 µM (inactive)	> 100 µM (inactive)	> 100 µM (inactive)	> 100 µM (inactive)	> 100 µM (inactive)	> 100 µM (inactive)	> 100 µM (inactive)	> 100 µM (inactive)	> 100 µM (inactive)	> 100 µM (inactive)	> 100 µM (inactive)	> 100 µM (inactive)		> 100 µM (inactive)	> 100 µM (inactive)	> 100 µM (inactive)	> 100 µM (inactive)	> 100 µM (inactive)
CCc1nn(S(=O)(=O)c2ccc(C)cc2)c2c1CS(=O)(=O)CC2	> 100 µM (inactive)		> 100 µM (inactive)		> 100 µM (inactive)	> 100 µM (inactive)			> 100 µM (inactive)	> 100 µM (inactive)	> 100 µM (inactive)	37.1 µM (inactive)	> 100 µM (inactive)	> 100 µM (inactive)		> 100 µM (inactive)	> 100 µM (inactive)	> 100 µM (inactive)	> 100 µM (inactive)	> 100 µM (inactive)
COC1=C(OC)C(=O)C(C/C=C/c2c(Cl)nc3sccn23)=C(C)C1=O	15.5 µM (inactive)		17.5 µM (inactive)	2.24 µM (inactive)	7.67 µM (inactive)	6.38 µM (inactive)	3.75 µM (inactive)		0.518 µM (active)	17.9 µM (inactive)	13.7 µM (inactive)	16 µM (inactive)	1.32 µM (inactive)	14.1 µM (inactive)	15 µM (inactive)	21.3 µM (inactive)	7.74 µM (inactive)	15 µM (inactive)	14.5 µM (inactive)	5.19 µM (inactive)
CC(C)=c1sc(=C(C)C)c2c1=NC(C)(C)N=2	37.5 µM (inactive)		78.9 µM (inactive)	27 µM (inactive)	> 100 µM (inactive)	65.6 µM (inactive)	> 100 µM (inactive)		53.7 µM (inactive)	43.7 µM (inactive)	72.6 µM (inactive)	64.9 µM (inactive)	79.6 µM (inactive)	> 100 µM (inactive)		72.6 µM (inactive)	52.8 µM (inactive)	> 100 µM (inactive)	37.4 µM (inactive)	48.3 µM (inactive)
COc1cc(NS(C)(=O)=O)ccc1N1Cc2c[nH]c3ccc4nccc1c4c23	> 100 µM (inactive)	26.1 µM (inactive)	34.4 µM (inactive)	18.2 µM (inactive)	24.9 µM (inactive)	28.7 µM (inactive)		29 µM (inactive)	39.1 µM (inactive)	18.5 µM (inactive)	33.7 µM (inactive)	19.1 µM (inactive)	23.4 µM (inactive)	34.7 µM (inactive)		32.1 µM (inactive)	25.5 µM (inactive)	39.8 µM (inactive)	67.8 µM (inactive)	36.6 µM (inactive)
CC(=O)/C(=C\n1c(=S)[nH]c2ccc([N+](=O)[O-])cc21)C(=O)Nc1ccccc1C	> 100 µM (inactive)			> 100 µM (inactive)	> 100 µM (inactive)	> 100 µM (inactive)	> 100 µM (inactive)	> 100 µM (inactive)	> 100 µM (inactive)	> 100 µM (inactive)	> 100 µM (inactive)		78.3 µM (inactive)		88.5 µM (inactive)	> 100 µM (inactive)	> 100 µM (inactive)		> 100 µM (inactive)	> 100 µM (inactive)
COC(=O)[C@H](Cc1ccccc1)NC(=O)N(CCC#N)CCN(C(=O)N[C@@H](Cc1ccccc1)C(=O)OC)c1ccccc1	18.9 µM (inactive)	18.7 µM (inactive)	37.3 µM (inactive)	22.5 µM (inactive)	26.7 µM (inactive)	17.5 µM (inactive)		30 µM (inactive)	32.7 µM (inactive)		19.9 µM (inactive)	22.8 µM (inactive)	22.9 µM (inactive)	49.5 µM (inactive)		35.1 µM (inactive)	20.2 µM (inactive)	20 µM (inactive)	3.34 µM (inactive)	38.5 µM (inactive)
C=C(CCOC)CCC1CCCCC(=C)C1=O (stereo unspecified)	> 100 µM (inactive)		63.1 µM (inactive)	> 100 µM (inactive)	> 100 µM (inactive)	> 100 µM (inactive)	> 100 µM (inactive)	> 100 µM (inactive)	> 100 µM (inactive)	> 100 µM (inactive)	> 100 µM (inactive)	> 100 µM (inactive)	> 100 µM (inactive)	> 100 µM (inactive)	> 100 µM (inactive)	> 100 µM (inactive)	> 100 µM (inactive)		> 100 µM (inactive)	> 100 µM (inactive)
CC(CN(C)C)C(C#N)(c1ccccc1)c1ccccc1 (stereo unspecified)	> 100 µM (inactive)	43.4 µM (inactive)	> 100 µM (inactive)	> 100 µM (inactive)	> 100 µM (inactive)	> 100 µM (inactive)	> 100 µM (inactive)	> 100 µM (inactive)	> 100 µM (inactive)	> 100 µM (inactive)	> 100 µM (inactive)	> 100 µM (inactive)	> 100 µM (inactive)	> 100 µM (inactive)		> 100 µM (inactive)	> 100 µM (inactive)	> 100 µM (inactive)	> 100 µM (inactive)	> 100 µM (inactive)
CCOC(=O)/C=C(/C=C\COC1CCCCO1)c1ccccc1 (stereo unspecified)	48 µM (inactive)		25.2 µM (inactive)	15.4 µM (inactive)	42.4 µM (inactive)	31.3 µM (inactive)	84.7 µM (inactive)	70.6 µM (inactive)	38.4 µM (inactive)	48.1 µM (inactive)	29.2 µM (inactive)	32.1 µM (inactive)	35 µM (inactive)	36.5 µM (inactive)	18.8 µM (inactive)	28.3 µM (inactive)	20.8 µM (inactive)	> 100 µM (inactive)	24.5 µM (inactive)	29 µM (inactive)
CCOC(=O)C1=C(C)N(c2ccc(Cl)cc2)C2(O)C=CC(O)=C3C(=O)c4ccccc4C(=O)C312 (stereo unspecified)	5 µM (inactive)	1.73 µM (inactive)	6.97 µM (inactive)	3.72 µM (inactive)	10.9 µM (inactive)	4.7 µM (inactive)	0.483 µM (active)		10.1 µM (inactive)	5.38 µM (inactive)	1.91 µM (inactive)	1.67 µM (inactive)	7.96 µM (inactive)	12.9 µM (inactive)		4.08 µM (inactive)	3.45 µM (inactive)	1.71 µM (inactive)	3.44 µM (inactive)	2.72 µM (inactive)
NC1c2c(Cl)sc(Cl)c2C(=O)C1O (stereo unspecified)	27.5 µM (inactive)	13.1 µM (inactive)	> 100 µM (inactive)	23.4 µM (inactive)	37.8 µM (inactive)	44.4 µM (inactive)	37.9 µM (inactive)	> 100 µM (inactive)	15.6 µM (inactive)	46 µM (inactive)	30.8 µM (inactive)	43.1 µM (inactive)	26.9 µM (inactive)	41.3 µM (inactive)		17.4 µM (inactive)	> 100 µM (inactive)	> 100 µM (inactive)	17.7 µM (inactive)	18.9 µM (inactive)
